Key:
4T1 cells = test: MTT cell viability assay; assay type: cell-based; conditions: Mus musculus, 48 h
Protocol: (§1) MDA-MB-231 (5000 cells per well), MDA-MB-468 (6000 cells per well), SUM159 (3000 cells per well), 4T1 (2000 cells per well), EMT6 (2000 cells per well), E0771 (3000 cells per well), MCF10A (5000 cells per well) and MCF12A (5000 cells per well) cells were seeded in 96-well culture plates. On the next day, cells were treated with either DMSO or indicated concentrations of SU056 for 48 h 3-(4,5-dimethylthiazol-2-yl)-2,5-diphenyltetrazolium bromide (MTT) (0.5 mg/mL) was dissolved in 1x PBS and 50 μL were added to each well and allowed to form formazan crystals (1–2 h) followed by removal of MTT. Formazan crystals were dissolved in DMSO and plates were scanned at 570nm using a Tecan multimode plate reader.

E0771 cells = test: MTT cell viability assay; assay type: cell-based; conditions: Mus musculus, 48 h
Protocol: as §1

EMT6 cells = test: MTT cell viability assay; assay type: cell-based; conditions: Mus musculus, 48 h
Protocol: as §1

MDA-MB-231 cells [1] = test: MTT cell viability assay; assay type: cell-based; conditions: Homo sapiens, MDA-MB-231, 48 h
Protocol: as §1

MDA-MB-468 cells [2] = test: MTT cell viability assay; assay type: cell-based; conditions: Homo sapiens, 48 h
Protocol: as §1

MDA-MB-231 cells [3] = test: Cell cycle analysis (PI, flow cytometry); assay type: cell-based, human
Protocol: (§2) TNBC cells (MDA-MB-231, MDA-MB-468, and SUM159) were seeded (40,000 cells per well) in 12 well plates and grown in regular conditions. The next day, cells were treated with DMSO (control) and indicated SU056 concentrations. At the end of each time point, cells were processed for PI staining as described earlier.[49] Synchronization of cells in G2/M phase was done using nocodazole (200 nM for 16 h) followed by SU056 treatment for 24 h. Cell cycle distribution was then analyzed by flow cytometry using a BD FACS Calibur (BD, USA).

MDA-MB-468 cells [4] = test: Cell cycle analysis (PI, flow cytometry); assay type: cell-based, human
Protocol: as §2

[5] = test system: MDA-MB-231 tumor xenograft; test: Subcutaneous tumor xenograft; assay type: in vivo, mouse; conditions: 50 mg/kg oral gavage, NSG mice
Protocol: (§3) Female NOD-Scid gamma (NSG, Homozygous for Prkdc, Hemizygous for Il2rg<tm1Wjl>) (Strain #005557) and Balb/cJ (Strain#000651) (7–8 weeks old) mice were purchased from the Jackson Laboratory and housed under standard laboratory conditions. The Institutional Animal Care & Use Program of Oregon Health and Science University approved the protocol (#IP00003247). MDA-MB-231 (3 x 10^6), MDA-MB-468 (5 x 10^6), 4T1 (1 x 10^5) and EMT6 (1 x 10^5) cells were suspended in 100 μL of 1x PBS and injected subcutaneously in each mouse. Tumor growth was monitored regularly and once the tumors reached approximately around 50–100 mm^3, treatment with SU056 (50 mg/kg body weight given by oral gavage, 5 days per week) was started. Tumor size and body weight were measured once a week. At the end of treatment, mice were euthanized via deep anesthesia followed by cervical dislocation. Tumors were excised and weighed. Tumor samples were processed for immunoblotting for different markers.

[6] = test system: MDA-MB-468 tumor xenograft; test: Subcutaneous tumor xenograft; assay type: in vivo, mouse; conditions: 50 mg/kg oral gavage, NSG mice
Protocol: as §3

[7] = nocodazole 200 nM 16 h, then SU056 24 h

Compound: O=C1OCC2=C1C(c1cccc(F)c1)c1cc3c(cc1N2CCO)OCO3 (stereo not shown) [SU056, 9-(3-fluorophenyl)-5-(2-hydroxyethyl)-6,9-dihydro-[1,3]dioxolo[4,5-g]furo[3,4-b]quinolin-8(5H)-one]
- IC50 (4T1 cells): 7150 ± 1260 nM
- IC50 (E0771 cells): 1540 ± 140 nM
- IC50 (EMT6 cells): 1500 ± 120 nM
- IC50 (MDA-MB-231 cells [1]): 1270 ± 190 nM
- IC50 (MDA-MB-468 cells [2]): 1360 ± 270 nM
- cells in G2/M phase (MDA-MB-231 cells [3]; 24 h, control 12%): 34%
- cell death in nocodazole-synchronized cells (MDA-MB-231 cells [3]; [7]): increased cell death
- cell cycle effect (MDA-MB-468 cells [4]; 0.5, 1.0, and 2.0 μM, 12 and 24 h): G2/M phase arrest
- cell death in nocodazole-synchronized cells (MDA-MB-468 cells [4]; [7]): increased cell death
- tumor growth arrested compared to vehicle control [5]: 48%
- tumor weight reduced compared with vehicle control [5]: 44.4%
- primary tumor growth reduced compared with vehicle control [6]: 49.8%
- tumor weight reduced compared with vehicle control [6]: 35.1%

Reference: article PMC11148772, “Inhibition of protein translational machinery in triple-negative breast cancer as a promising therapeutic strategy” (Cell Reports Medicine, 2024)
